Measured values as given in the NIST ThermoML archive (doi:10.1016/j.jct.2018.05.027).
Numbers after ± are expanded uncertainties.

Assay: xn = mol fraction of the nth substance listed
Details: Liquid, Vibrating wire viscometry

Question: For `Cc1ccc(C)c(C)c1` [1,2,4-trimethylbenzene] + CCC(C)O, which viscosity (293.15 K, 100 kPa, x2 = 0.3011) is on record?
Answer: Its viscosity is 0.9506 ± 0.016 mPa·s.

Question: And the viscosity (293.15 K, 100 kPa, x2 = 0.5001)?
Answer: Its viscosity is 1.108 ± 0.018 mPa·s.

Question: What about the viscosity (293.15 K, 100 kPa, x2 = 0.7999) of the same compound?
Answer: The viscosity was 1.834 ± 0.03 mPa·s.

Question: And the viscosity (293.15 K, 1000 kPa, x2 = 0.3011)?
Answer: Its viscosity is 0.9531 ± 0.016 mPa·s.

Question: And the viscosity (293.15 K, 1000 kPa, x2 = 0.5001)?
Answer: The viscosity was 1.117 ± 0.018 mPa·s.

Question: And the viscosity (293.15 K, 1000 kPa, x2 = 0.7999)?
Answer: The viscosity was 1.863 ± 0.03 mPa·s.

Question: What about the viscosity (293.15 K, 5000 kPa, x2 = 0.3011) of the same compound?
Answer: Its viscosity is 0.9988 ± 0.017 mPa·s.

Question: And the viscosity (293.15 K, 5000 kPa, x2 = 0.5001)?
Answer: Its viscosity is 1.173 ± 0.019 mPa·s.

Question: And the viscosity (293.15 K, 5000 kPa, x2 = 0.7999)?
Answer: The viscosity was 1.964 ± 0.032 mPa·s.

Question: What about the viscosity (293.15 K, 10000 kPa, x2 = 0.3011) of the same compound?
Answer: The viscosity was 1.051 ± 0.017 mPa·s.

Question: What about the viscosity (293.15 K, 10000 kPa, x2 = 0.5001) of the same compound?
Answer: The viscosity was 1.235 ± 0.02 mPa·s.

Question: And the viscosity (293.15 K, 10000 kPa, x2 = 0.7999)?
Answer: Its viscosity is 2.099 ± 0.034 mPa·s.

Question: What about the viscosity (293.15 K, 20000 kPa, x2 = 0.3011) of the same compound?
Answer: Its viscosity is 1.137 ± 0.019 mPa·s.

Question: And the viscosity (293.15 K, 20000 kPa, x2 = 0.5001)?
Answer: Its viscosity is 1.329 ± 0.022 mPa·s.

Question: And the viscosity (293.15 K, 20000 kPa, x2 = 0.7999)?
Answer: The viscosity was 2.326 ± 0.037 mPa·s.

Question: And the viscosity (293.15 K, 30000 kPa, x2 = 0.3011)?
Answer: The viscosity was 1.238 ± 0.02 mPa·s.

Question: And the viscosity (293.15 K, 30000 kPa, x2 = 0.5001)?
Answer: The viscosity was 1.462 ± 0.024 mPa·s.

Question: What about the viscosity (293.15 K, 30000 kPa, x2 = 0.7999) of the same compound?
Answer: Its viscosity is 2.611 ± 0.042 mPa·s.

Question: And the viscosity (293.15 K, 40000 kPa, x2 = 0.3011)?
Answer: The viscosity was 1.334 ± 0.022 mPa·s.

Question: And the viscosity (293.15 K, 40000 kPa, x2 = 0.5001)?
Answer: Its viscosity is 1.591 ± 0.026 mPa·s.

Question: And the viscosity (293.15 K, 40000 kPa, x2 = 0.7999)?
Answer: Its viscosity is 2.897 ± 0.046 mPa·s.

Question: What about the viscosity (293.15 K, 50000 kPa, x2 = 0.3011) of the same compound?
Answer: Its viscosity is 1.452 ± 0.024 mPa·s.

Question: And the viscosity (293.15 K, 50000 kPa, x2 = 0.5001)?
Answer: The viscosity was 1.739 ± 0.028 mPa·s.

Question: And the viscosity (293.15 K, 50000 kPa, x2 = 0.7999)?
Answer: Its viscosity is 3.229 ± 0.051 mPa·s.

Question: What about the viscosity (293.15 K, 60000 kPa, x2 = 0.3011) of the same compound?
Answer: The viscosity was 1.57 ± 0.025 mPa·s.

Question: And the viscosity (293.15 K, 60000 kPa, x2 = 0.5001)?
Answer: Its viscosity is 1.906 ± 0.031 mPa·s.

Question: What about the viscosity (293.15 K, 60000 kPa, x2 = 0.7999) of the same compound?
Answer: The viscosity was 3.561 ± 0.056 mPa·s.

Question: What about the viscosity (293.15 K, 70000 kPa, x2 = 0.3011) of the same compound?
Answer: The viscosity was 1.702 ± 0.027 mPa·s.

Question: What about the viscosity (293.15 K, 70000 kPa, x2 = 0.5001) of the same compound?
Answer: Its viscosity is 2.061 ± 0.033 mPa·s.

Question: And the viscosity (293.15 K, 70000 kPa, x2 = 0.7999)?
Answer: The viscosity was 3.917 ± 0.062 mPa·s.

Question: What about the viscosity (293.15 K, 80000 kPa, x2 = 0.3011) of the same compound?
Answer: The viscosity was 1.851 ± 0.03 mPa·s.

Question: What about the viscosity (293.15 K, 80000 kPa, x2 = 0.5001) of the same compound?
Answer: Its viscosity is 2.257 ± 0.036 mPa·s.

Question: And the viscosity (293.15 K, 80000 kPa, x2 = 0.7999)?
Answer: The viscosity was 4.274 ± 0.068 mPa·s.

Question: What about the viscosity (293.15 K, 100000 kPa, x2 = 0.3011) of the same compound?
Answer: Its viscosity is 2.152 ± 0.034 mPa·s.

Question: And the viscosity (293.15 K, 100000 kPa, x2 = 0.5001)?
Answer: The viscosity was 2.62 ± 0.042 mPa·s.

Question: What about the viscosity (293.15 K, 100000 kPa, x2 = 0.7999) of the same compound?
Answer: The viscosity was 5.09 ± 0.08 mPa·s.

Question: And the viscosity (293.15 K, 120000 kPa, x2 = 0.3011)?
Answer: The viscosity was 2.47 ± 0.039 mPa·s.

Question: What about the viscosity (293.15 K, 120000 kPa, x2 = 0.5001) of the same compound?
Answer: Its viscosity is 3.033 ± 0.048 mPa·s.

Question: What about the viscosity (293.15 K, 120000 kPa, x2 = 0.7999) of the same compound?
Answer: The viscosity was 6.117 ± 0.096 mPa·s.

Question: And the viscosity (293.15 K, 140000 kPa, x2 = 0.3011)?
Answer: Its viscosity is 2.838 ± 0.045 mPa·s.

Question: What about the viscosity (293.15 K, 140000 kPa, x2 = 0.5001) of the same compound?
Answer: Its viscosity is 3.493 ± 0.055 mPa·s.

Question: And the viscosity (293.15 K, 140000 kPa, x2 = 0.7999)?
Answer: Its viscosity is 7.143 ± 0.11 mPa·s.

Question: What about the viscosity (313.15 K, 100 kPa, x2 = 0.3011) of the same compound?
Answer: The viscosity was 0.708 ± 0.012 mPa·s.

Question: And the viscosity (313.15 K, 100 kPa, x2 = 0.5001)?
Answer: Its viscosity is 0.7802 ± 0.013 mPa·s.

Question: And the viscosity (313.15 K, 100 kPa, x2 = 0.7999)?
Answer: The viscosity was 1.097 ± 0.018 mPa·s.

Question: What about the viscosity (313.15 K, 1000 kPa, x2 = 0.3011) of the same compound?
Answer: Its viscosity is 0.7098 ± 0.012 mPa·s.

Question: And the viscosity (313.15 K, 1000 kPa, x2 = 0.5001)?
Answer: The viscosity was 0.7964 ± 0.014 mPa·s.

Question: What about the viscosity (313.15 K, 1000 kPa, x2 = 0.7999) of the same compound?
Answer: The viscosity was 1.131 ± 0.019 mPa·s.

Question: And the viscosity (313.15 K, 5000 kPa, x2 = 0.3011)?
Answer: The viscosity was 0.7427 ± 0.013 mPa·s.

Question: And the viscosity (313.15 K, 5000 kPa, x2 = 0.5001)?
Answer: The viscosity was 0.8335 ± 0.014 mPa·s.

Question: And the viscosity (313.15 K, 5000 kPa, x2 = 0.7999)?
Answer: The viscosity was 1.187 ± 0.02 mPa·s.

Question: What about the viscosity (313.15 K, 10000 kPa, x2 = 0.3011) of the same compound?
Answer: Its viscosity is 0.7727 ± 0.013 mPa·s.

Question: And the viscosity (313.15 K, 10000 kPa, x2 = 0.5001)?
Answer: The viscosity was 0.8676 ± 0.015 mPa·s.

Question: And the viscosity (313.15 K, 10000 kPa, x2 = 0.7999)?
Answer: The viscosity was 1.244 ± 0.021 mPa·s.

Question: And the viscosity (313.15 K, 20000 kPa, x2 = 0.3011)?
Answer: The viscosity was 0.8356 ± 0.014 mPa·s.

Question: And the viscosity (313.15 K, 20000 kPa, x2 = 0.5001)?
Answer: The viscosity was 0.9318 ± 0.016 mPa·s.

Question: And the viscosity (313.15 K, 20000 kPa, x2 = 0.7999)?
Answer: Its viscosity is 1.363 ± 0.022 mPa·s.

Question: And the viscosity (313.15 K, 30000 kPa, x2 = 0.3011)?
Answer: Its viscosity is 0.9034 ± 0.015 mPa·s.

Question: And the viscosity (313.15 K, 30000 kPa, x2 = 0.5001)?
Answer: Its viscosity is 1.031 ± 0.017 mPa·s.

Question: And the viscosity (313.15 K, 30000 kPa, x2 = 0.7999)?
Answer: The viscosity was 1.515 ± 0.025 mPa·s.

Question: And the viscosity (313.15 K, 40000 kPa, x2 = 0.3011)?
Answer: The viscosity was 0.9814 ± 0.016 mPa·s.

Question: And the viscosity (313.15 K, 40000 kPa, x2 = 0.5001)?
Answer: Its viscosity is 1.108 ± 0.018 mPa·s.

Question: And the viscosity (313.15 K, 40000 kPa, x2 = 0.7999)?
Answer: The viscosity was 1.666 ± 0.027 mPa·s.

Question: And the viscosity (313.15 K, 50000 kPa, x2 = 0.3011)?
Answer: Its viscosity is 1.055 ± 0.017 mPa·s.

Question: And the viscosity (313.15 K, 50000 kPa, x2 = 0.5001)?
Answer: Its viscosity is 1.204 ± 0.02 mPa·s.

Question: What about the viscosity (313.15 K, 50000 kPa, x2 = 0.7999) of the same compound?
Answer: Its viscosity is 1.835 ± 0.03 mPa·s.

Question: What about the viscosity (313.15 K, 60000 kPa, x2 = 0.3011) of the same compound?
Answer: The viscosity was 1.132 ± 0.019 mPa·s.

Question: What about the viscosity (313.15 K, 60000 kPa, x2 = 0.5001) of the same compound?
Answer: Its viscosity is 1.3 ± 0.021 mPa·s.

Question: What about the viscosity (313.15 K, 60000 kPa, x2 = 0.7999) of the same compound?
Answer: The viscosity was 2.005 ± 0.032 mPa·s.

Question: And the viscosity (313.15 K, 70000 kPa, x2 = 0.3011)?
Answer: Its viscosity is 1.224 ± 0.02 mPa·s.

Question: What about the viscosity (313.15 K, 70000 kPa, x2 = 0.5001) of the same compound?
Answer: Its viscosity is 1.394 ± 0.023 mPa·s.

Question: What about the viscosity (313.15 K, 70000 kPa, x2 = 0.7999) of the same compound?
Answer: The viscosity was 2.187 ± 0.035 mPa·s.

Question: And the viscosity (313.15 K, 80000 kPa, x2 = 0.3011)?
Answer: The viscosity was 1.303 ± 0.021 mPa·s.

Question: And the viscosity (313.15 K, 80000 kPa, x2 = 0.5001)?
Answer: The viscosity was 1.502 ± 0.024 mPa·s.

Question: And the viscosity (313.15 K, 80000 kPa, x2 = 0.7999)?
Answer: Its viscosity is 2.368 ± 0.038 mPa·s.

Question: And the viscosity (313.15 K, 100000 kPa, x2 = 0.3011)?
Answer: The viscosity was 1.491 ± 0.024 mPa·s.

Question: What about the viscosity (313.15 K, 100000 kPa, x2 = 0.5001) of the same compound?
Answer: The viscosity was 1.716 ± 0.028 mPa·s.

Question: And the viscosity (313.15 K, 100000 kPa, x2 = 0.7999)?
Answer: The viscosity was 2.741 ± 0.044 mPa·s.

Question: What about the viscosity (313.15 K, 120000 kPa, x2 = 0.3011) of the same compound?
Answer: Its viscosity is 1.667 ± 0.027 mPa·s.

Question: What about the viscosity (313.15 K, 120000 kPa, x2 = 0.5001) of the same compound?
Answer: Its viscosity is 1.936 ± 0.031 mPa·s.

Question: And the viscosity (313.15 K, 120000 kPa, x2 = 0.7999)?
Answer: Its viscosity is 3.219 ± 0.051 mPa·s.

Question: And the viscosity (313.15 K, 140000 kPa, x2 = 0.3011)?
Answer: The viscosity was 1.904 ± 0.031 mPa·s.

Question: What about the viscosity (313.15 K, 140000 kPa, x2 = 0.5001) of the same compound?
Answer: Its viscosity is 2.192 ± 0.035 mPa·s.

Question: And the viscosity (313.15 K, 140000 kPa, x2 = 0.7999)?
Answer: Its viscosity is 3.693 ± 0.059 mPa·s.
